Several values for one entry are separate records, joined by “and”; a condition that tells them apart may be missing. Equal values may be shown once.
Target: human indoleamine 2,3-dioxygenase (hIDO) (Homo sapiens, UniProt P14902)
Test: steady-state dioxygenase activity of hIDO
[1] = compound as substrate, no IDE, pH 7.4, air-saturated, kcat = Vmax/[hIDO]
[2] = L-Trp reaction in the presence of 2.5 mM IDE, pH 7.4
[3] = L-Trp reaction in the presence of 5.1 mM IDE, pH 7.4

Sequence of human indoleamine 2,3-dioxygenase (hIDO) (P14902 whole entry): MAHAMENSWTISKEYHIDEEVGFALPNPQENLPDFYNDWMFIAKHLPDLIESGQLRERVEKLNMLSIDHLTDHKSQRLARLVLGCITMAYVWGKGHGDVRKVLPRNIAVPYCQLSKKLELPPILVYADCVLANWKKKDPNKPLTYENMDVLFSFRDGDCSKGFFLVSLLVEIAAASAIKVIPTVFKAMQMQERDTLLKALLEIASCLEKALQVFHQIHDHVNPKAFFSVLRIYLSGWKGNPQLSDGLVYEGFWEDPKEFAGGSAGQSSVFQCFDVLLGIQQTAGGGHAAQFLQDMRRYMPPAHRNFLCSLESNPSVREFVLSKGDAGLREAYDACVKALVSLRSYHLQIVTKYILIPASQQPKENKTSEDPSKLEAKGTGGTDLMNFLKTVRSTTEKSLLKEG

N[C@H](Cc1c[nH]c2ccccc12)C(=O)O [D-Trp]
substrate inhibition (activity as a function of substrate concentration, Figure 1b): No substrate inhibition was observed | Km (compound as substrate): 2600 µM | Km, fold larger as compared to the L-Trp reaction (compound as substrate): 170 fold | kcat, fold faster as compared to the L-Trp reaction (compound as substrate): 2 fold | Km (compound as substrate, no IDE, pH 7.4, air-saturated): 2600 µM | kcat [1]: 5.9 s⁻¹ and 5.9 ± 0.3 s⁻¹

OCCc1c[nH]c2ccccc12 [IDE, 3-Indole Ethanol]
Ksi [2]: 0.48 ± 0.05 mM | kcat [2]: 3.2 ± 0.4 s⁻¹ | Ksi [3]: 1.0 ± 0.1 mM | kcat [3]: 3.5 ± 0.6 s⁻¹

N[C@@H](Cc1c[nH]c2ccccc12)C(=O)O [L-Trp, L-tryptophan]
kcat [1]: 3.1 ± 0.2 s⁻¹ | Ksi (self-inhibition / substrate-inhibition constant) (compound as substrate, no IDE, pH 7.4, fit with eq 1): 0.17 mM and 0.17 ± 0.2 mM

CO[C@@]12[C@H](COC(N)=O)C3=C(C(=O)C(C)=C(N)C3=O)N1C[C@@H]1N[C@@H]12 [MtoC, Mitomycin C]
mode of inhibition (Lineweaver–Burk plot of L-Trp reaction): uncompetitive
